Each structure is given as a SMILES string. Values joined by “and” are separate entries in the source; they are usually repeats but may differ in a detail not shown here. Identical values can stand only once.

One may read the IC50 as the concentration that inhibits the measured activity by half.

In the first assay the test system is NCI-H295R. Put plainly: IC50 (antiproliferative, ATP content). Conditions: 48 h.
The compound `COP(=S)(OC)Oc1ccc(Sc2ccc(OP(=S)(OC)OC)cc2)cc1` registered an IC50 of 21100 nM.

Take `CC(C)C[C@H](NC(=O)[C@H](Cc1ccccc1)NC(=O)c1cnccn1)B(O)O`: the 50% inhibitory concentration (IC50) is 299 nM and 335 nM. For `Cc1cc(O)c2c3c4c(cc(O)c13)C(C)(C)C(=O)c1c(O)cc(O)c(c1-4)C2=O`, the half-inhibitory concentration (IC50) stood at 3350 nM.

A further assay has as its system NCI-H295R. The assay can be described thus: IC50 (antiproliferative, ATP content). Conditions: 48 h. The source holds these as a separate data set. Put shortly:
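In 1536-well plates, 1500 adrenocortical carcinoma cells per well were grown overnight in serum-free, ITS-supplemented DMEM before compounds were pin-transferred at 8 final concentrations (0.6 nM to 46 µM). After 48 h at 37 °C and 5% CO2, CellTiter-Glo luminescence was read following 20 min at room temperature and normalised to vehicle and positive-control wells. IC50 values came from logistic curve fits, with compounds lacking any concentration response listed as above the top dose.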
With `C[C@]12CC[C@@H]3c4ccc(O)cc4CC[C@H]3[C@@H]1CC[C@@H]2OC(=O)CCC1CCCC1`, the IC50 was more than 46 µM.

In turn, `OC(=O)[C@]3(C)C[C@H]4/C5=C/C(=O)[C@H]2[C@@](C)(CC[C@@H]1[C@]2(C)CC[C@H](O)C1(C)C)[C@]5(C)CC[C@@]4(C)CC3` returned an IC50 of more than 46 µM.

The subject of another assay is NCI-H295R. Put plainly: maximal response (efficacy) relative to DMSO (0%) and doxorubicin (-100%); higher = less growth inhibition. Conditions: 48 h.
For the compound `COP(=S)(OC)Oc1ccc(Sc2ccc(OP(=S)(OC)OC)cc2)cc1`, the maximal response was -96.4%. Same read-out and setting: the value for `CC(C)C[C@H](NC(=O)[C@H](Cc1ccccc1)NC(=O)c1cnccn1)B(O)O` was -74.3% and -77.1%.

On to `Cc1cc(O)c2c3c4c(cc(O)c13)C(C)(C)C(=O)c1c(O)cc(O)c(c1-4)C2=O`, for which the maximal response was -103%. Still for that read-out and setting: the value for `C[C@]12CC[C@@H]3c4ccc(O)cc4CC[C@H]3[C@@H]1CC[C@@H]2OC(=O)CCC1CCCC1` was -33.7%; that for `CCc1cc(Cl)c(OC)c(C(=O)NC[C@@H]2CCCN2CC)c1O.Cl` was -24.8%. The same measure, in the same setting: the value for `COCc1c(C(C)C)nc(C(C)C)c(/C=C/[C@@H](O)C[C@@H](O)CC(=O)[O-])c1-c1ccc(F)cc1.[Na+]` was -23.2%; that for `CC(C)c1c(C(=O)Nc2ccccc2)c(-c2ccccc2)c(-c2ccc(F)cc2)n1CC[C@@H](O)C[C@@H](O)CC(=O)[O-].CC(C)c1c(C(=O)Nc2ccccc2)c(-c2ccccc2)c(-c2ccc(F)cc2)n1CC[C@@H](O)C[C@@H](O)CC(=O)[O-].[Ca+2]` was -29.1%; that for `COc1cc(C=C2CCCC(=Cc3ccc(O)c(OC)c3)C2=O)ccc1O` was -130%. Still for that read-out and setting: the value for `COc1cccc(N(C)C(=S)Oc2ccc3c(c2)CCCC3)n1` was -47.1%; that for `COC(=O)Nc1nc2cc(Sc3ccccc3)ccc2[nH]1` was -54.1%; that for `COC(=O)C1=C(C#N)NC(C)=C(C(=O)OC(C)C)C1c1cccc([N+](=O)[O-])c1` (configuration not stated) was -23.9%. Take `Oc1ccc(O)cc1`: the maximal response was -31.2%. Regarding `CN(C)CCCN1c2ccccc2CCc2ccccc21`, the maximal response was -21%. Still for that read-out and setting: the value for `OC(=O)[C@]3(C)C[C@H]4/C5=C/C(=O)[C@H]2[C@@](C)(CC[C@@H]1[C@]2(C)CC[C@H](O)C1(C)C)[C@]5(C)CC[C@@]4(C)CC3` was -50.7%; that for `CCC(CC)(CC(=O)Nc1cccc(/C=C/c2nc(C3CCC3)cs2)c1)C(=O)O` was -34.3%. Same read-out and setting: the value for `CN(C)CCCN1c2ccccc2CCc2ccc(Cl)cc21` was -31.2%; that for `COC(=O)Nc1nc2cc(C(=O)c3cccs3)ccc2[nH]1` was -53.8%. Consider `O=[N+]([O-])c1c(Cl)cccc1-c1c[nH]cc1Cl`, for which the maximal response was -29.2%.

As to `CC[C@@]1(O)C(=O)OCc2c1cc1n(c2=O)Cc2cc3c(CN(C)C)c(O)ccc3nc2-1.Cl`, the maximal response was -36.8%. Same read-out and setting: the value for `O=C2N(CCC8)[C@]8([H])[C@@](O[C@](C)1N[C@]([C@@H]6C=C([C@]7([H])N(C)C6)C5=C4C(C7)=CNC4=CC=C5)=O)(O)N([C@H]2CC3=CC=CC=C3)C1=O.O=C%10N(CCC%16)[C@]%16([H])[C@@](O[C@](C)9N[C@]([C@@H]%14C=C([C@]%15([H])N(C)C%14)C%13=C%12C(C%15)=CNC%12=CC=C%13)=O)(O)N([C@H]%10CC%11=CC=CC=C%11)C9=O.O[C@@H](C(O)=O)[C@@H](O)C([O-])=O` was -31.1%; that for `CC[C@@]1([C@@H]2O[C@@H]([C@H]3O[C@@](O)(CO)[C@H](C)C[C@@H]3C)C[C@@H]2C)CC[C@H]([C@]2(C)CC[C@]3(C[C@H](O)[C@@H](C)[C@@H]([C@@H](C)[C@@H](OC)C(C)C(=O)[O-])O3)O2)O1.[Na+]` (some centres not stated) was -50.4%; that for `[O-][n+]1ccccc1SSc1cccc[n+]1[O-]` was -23.5%. Turning to `Cl.Cl.OCCN1CCN(CCCN2c3ccccc3C=Cc3ccccc32)CC1`, the maximal response is -69.8%. Consider `S=C1SCN(Cc2ccccc2)CN1Cc1ccccc1`, for which the maximal response was -29.7%. Regarding `CC(CN(C)C)CN1c2ccccc2Sc2ccc(C(F)(F)F)cc21.O=C(O)C=CC(=O)O` (configuration not stated), the maximal response was -30.2%.

Turning to `CCOc1ccc(Cc2nccc3cc(OCC)c(OCC)cc23)cc1OCC.Cl`, the maximal response was -39.5%. Same read-out and setting: the value for `COC(=O)C1=C(C)NC(C)=C(C(=O)OC(C)(C)CN(C)CCC(c2ccccc2)c2ccccc2)C1c1cccc([N+](=O)[O-])c1.Cl` (configuration not stated) was -45.6%. Same read-out and setting: the value for `Nc1ccc(C(=O)Nc2ccccc2N)cc1` was -43.9%; that for `C[C@]12C/C(=C/O)C(=O)C[C@@H]1CC[C@@H]1[C@@H]2CC[C@@]2(C)[C@H]1CC[C@]2(C)O` was -34.1%. As to `CCC(O)c1ccccc1` (configuration not stated), the maximal response was -25.2%. On the same count and under the same terms, the value for `CC(=O)O[C@H]\1CC[C@H]4C(=C/1)/CC[C@@H]2[C@@H]4CC[C@]3(C)[C@@](CC[C@@H]23)(C#C)OC(C)=O` was -26.3%; that for `Cl.O=C(C[C@@H]1NCCC[C@H]1O)Cn1cnc2cc(Br)c(Cl)cc2c1=O` was -28.3%; that for `Nc1ncnc2c1ncn2[C@@H]1O[C@H](COP(=O)(O)O)[C@@H](O)[C@@H]1O` was 22%. The same measure, in the same setting: the value for `CC1=CC(=O)[N-]S(=O)(=O)O1.[K+]` was -79.3%; that for `F\C1=C\N(C(=O)NC1=O)[C@H]2C[C@H](O)[C@@H](CO)O2` was -37.6%. Still for that read-out and setting: the value for `COc1cc2c(c(OC)c1OC)-c1ccc(OC)c(=O)cc1[C@@H](NC(C)=O)CC2` was -49.9%. With `CC(=O)Oc1ccc2c(c1)CC[C@@H]1[C@@H]2CC[C@]2(C)[C@@H](O)CC[C@@H]12`, the maximal response was -30.8%.

For `O=C1c2cccc(O)c2C(=O)c2c(O)cccc21`, the maximal response is -35.8%.

`O=C([O-])C1=C(CSc2nnnn2CS(=O)(=O)[O-])CS[C@@H]2[C@H](NC(=O)[C@H](O)c3ccccc3)C(=O)N12.[Na+].[Na+]`: the maximal response came out at 25.5%. Still for that read-out and setting: the value for `O[C@@]1(CC)C[C@H](C2)C[C@@]([C@]7=C(OC)C=C6N(C)[C@]5([H])[C@@](C6=C7)(CC9)[C@](N9CC=C8)([H])[C@]8(CC)[C@@H](OC(C)=O)[C@@](O)5[C@@](OC)=O)([C@](OC)=O)C(NC4=CC=CC=C34)=C3CCN2C1.O=S(O)(O)=O` was -54.7% and -52.9%; that for `O=C1C(C(O)=C4C([C@@H](O[C@@H]5O[C@@H](C)[C@@H](O[C@@H]6CCCCO6)[C@@H](N)C5)C[C@@]([C@](CO)=O)(O)C4)=C3O)=C3C(C2=C1C=CC=C2OC)=O` was -43%. Same read-out and setting: the value for `C[C@]12CCC(=O)C=C1[C@@H]1C[C@@H]1[C@H]1[C@@H]3[C@@H]4C[C@@H]4[C@@]4(CCC(=O)O4)[C@@]3(C)CC[C@@H]12` was -33.2%. Same read-out and setting: the value for `CN[C@H]1CCc2cc(OC)c(OC)c(OC)c2-c2ccc(OC)c(=O)cc21` was -53.1%; that for `CC(C)[C@H](N)C(=O)OCC(CO)OCn1cnc2c(=O)nc(N)[nH]c21.Cl` (some centres not stated) was -28.1%; that for `N[C@@H](Cc1cc(I)c(Oc2cc(I)c(O)c(I)c2)c(I)c1)C(=O)O` was -25.6%. On to `CC(=O)[O][Co][N]1/C2=C(/C)C3=N/C(=C\C4=NC(=C(/C)C5=N[C@H]([C@H](CC(N)=O)[C@@]5(C)CCC(=O)NCC(C)OP(=O)(O)O[C@H]5[C@@H](O)[C@@H](n6cnc7cc(C)c(C)cc76)O[C@@H]5CO)[C@@]1(C)[C@@](C)(CC(N)=O)[C@@H]2CCC(N)=O)/[C@@H](CCC(N)=O)C4(C)C)[C@@H](CCC(N)=O)[C@]3(C)CC(N)=O` (some centres not stated), for which the maximal response is -34.1%.

For the compound `COc1cc(/C=C/C(=O)O[C@H]2CC[C@]34C[C@]35CC[C@]3(C)[C@@H]([C@H](C)CCC=C(C)C)CC[C@@]3(C)[C@@H]5CC[C@H]4C2(C)C)ccc1O`, the maximal response is -40.3%. As for `C/C(=C\c1csc(C)n1)[C@@H]1C[C@@H]2O[C@]2(C)CCC[C@H](C)[C@H](O)[C@@H](C)C(=O)C(C)(C)[C@@H](O)CC(=O)O1`, the maximal response is -57.6%. The same measure, in the same setting: the value for `N[C@H](C(=O)O)[C@@H]1CC(Cl)=NO1` was -39.1%; that for `Clc1ccc(C(Cn2ccnc2)OCc2csc3c(Cl)cccc23)c(Cl)c1.O=[N+]([O-])O` (configuration not stated) was -24.9%.

For `O=C(Nc1ncc([N+](=O)[O-])s1)c1cccs1`, the maximal response is -58.5%. Still for that read-out and setting: the value for `O=C(Nc1ccc(Cl)cc1)Nc1ccc(Cl)c(Cl)c1` was -41.7%; that for `COC1=CC(=O)C[C@@H](C)[C@]12Oc1c(Cl)c(OC)cc(OC)c1C2=O` was -30.5%; that for `CNCC/C=C2/C1=C(CCC3=C2C=CC=C3)C=CC=C1.Cl` was -38.9%. For `COc1cc(C(=O)OCCCN2CCCN(CCCOC(=O)c3cc(OC)c(OC)c(OC)c3)CC2)cc(OC)c1OC`, the maximal response was -31.2%. Still for that read-out and setting: the value for `CN(CC=CC#CC(C)(C)C)Cc1cccc2ccccc12` was -34.4%; that for `NC(=O)N/N=C/c1ccc([N+](=O)[O-])o1` was -20.7%; that for `CCCSc1ccc2[nH]c(NC(=O)OC)nc2c1` was -55.1%. Take `O=C3C1=C(NC(N)=N3)NC=C1CCC2=CC=C(C(N[C@H]([C@@]([O-])=O)CCC([O-])=O)=O)C=C2.[Na+].[Na+]`: the maximal response was -56.4%.

On to `CCC/C=C/C=C/C(=O)O[C@H]1/C(=C/C(=O)OC)C[C@H]2C[C@H]([C@@H](C)O)OC(=O)C[C@H](O)C[C@@H]3C[C@H](OC(C)=O)C(C)(C)[C@](O)(C[C@@H]4C/C(=C/C(=O)OC)C[C@H](/C=C/C(C)(C)[C@]1(O)O2)O4)O3`, for which the maximal response was -41.4%. Same read-out and setting: the value for `CCOC(=O)Oc1c(OC)cc(cc1OC)C(=O)O[C@@H]4C[C@@H]5CN6CC\C3=C(\Nc2cc(OC)ccc23)[C@H]6C[C@@H]5[C@H](C(=O)OC)[C@H]4OC` was -30.6%; that for `O=C(N/N=C/c1ccccc1O)c1ccncc1` was -33.1%.

For the origin of these results see the supplement of paper PMC3493320.
